Assay results from PMC6319348, “Phase I/II clinical trial of the targeted chemotherapeutic drug, folate-tubulysin, in dogs with naturally-occurring invasive urothelial carcinoma” (Oncotarget, 2018).
Where “and” joins values, the source holds several entries; their conditions need not be identical. Equal entries are not always repeated. Where two headings read alike, the source gives them in different places.

Assays:
Assay type in all cases: in vivo, dog
[1] = system: naturally-occurring invasive urothelial carcinoma (iUC); assay: Phase I/II antitumor activity (tumor response, progression free interval)
Procedure: In order to estimate antitumor activity, the cohort of dogs receiving the MTD was expanded with the goal to assess antitumor effects in a minimum of 24 dogs treated at or above the MTD [37]. The effects of EC0531 on the tumor were assessed by cystosonography using a specific standardized protocol and physical exam including rectal exam at four-week intervals. Complete cancer staging (thoracic radiography with left lateral, right lateral, and ventrodorsal projections; abdominal radiography with right lateral and ventrodorsal projections; and complete abdominal ultrasonography) was performed at eight-week intervals. The response in the primary tumor was determined by comparing volume measurements by cystosonography as follows: complete remission (CR, no cancer detected), partial remission (PR, ≥50% decrease in tumor volume and no new tumor lesions), stable disease (SD, <50% change in tumor volume and no new tumor lesions), and progressive disease (PD, ≥50% increase in tumor volume or the development of new tumor lesions). Metastatic lesion response was assessed by RECIST criteria. Progression free interval (PFI) was defined as the time from start of EC0531 treatment until PD of local or metastatic lesion(s). Permission to perform a necropsy was requested at the time of the dog’s death (death from cancer or other causes). Tissues collected at necropsy were examined histologically and immunohistochemically to detect FR expression in primary and metastatic lesions.
Stepwise Cox regression analysis was performed to assess the relationship between predictor variables and […] (PFI). The following variables were assessed: age, weight, sex, peripheral blood neutrophil-to-lymphocyte ratio at the start of treatment, tumor location (bladder vs urethra/prostate vs both), treatment beginning at < MTD or ≥ MTD, pretreatment with chemotherapy, concurrent use of COXi, IHC/ICC score, and best tumor response (PD vs SD vs PR/CR). Variables with p-values < 0.25 in univariate models were then included in multivariate modeling. Variable(s) with a p-value < 0.05 in the final multi-variable Cox regression model were considered to have a significant effect on PFI.

[2] = Plasma pharmacokinetic analysis
Procedure: Plasma pharmacokinetic analysis was conducted in six dogs sequentially enrolled in the trial. Blood was collected at 0, 2, 10, and 30 minutes, and at 1, 2, 8, and 24 hours after treatment.
(§1) Tubes were centrifuged, and plasma collected and stored at –80° C.
For the analysis of EC0531 concentrations in plasma, the EC0531 was extracted from 100 µL of dog plasma by 96-well solid phase extraction (SPE). Internal standard was added to all samples prior to extraction using a Strata X-A SPE plate (Phenomenex, Torrance, CA, USA). The eluate was collected, evaporated, and finally reconstituted with 85/15 water/acetonitrile with 40 mM mannitol. The extracted samples were injected into a UPLC/MS/MS system (Waters, Milford, MA, USA) using a BEH C18 reverse phase column (Waters) implementing a mobile phase gradient. Incurred sample concentrations were then back-calculated against a calibration curve prepared in blank dog plasma.
(§2) Internal standard was added to all samples prior to extraction using a 200 µL SLE+ plate (Biotage, Charlotte, NC, USA). The eluate was collected, evaporated, and reconstituted with acetone prior to sealing and heating the collection plate for 1 hour. After incubation, the extracts were again evaporated and finally reconstituted prior to injection. The extracted samples were injected into a UPLC/MS/MS system (Waters) using a BEH shield RP18 reverse phase column (Waters) and eluted under isocratic conditions. […] Incurred sample concentrations were then back-calculated against a calibration curve prepared in blank dog plasma. […] Samples were homogenized in buffer with a bead beater, or hand held homogenizer. Aliquots (100 µL) of each sample were spiked with 400 µL internal standards in acetone. The extracts were sealed and incubated at 55° C for 1 hour. The extracts were then evaporated to remove acetone, and reconstituted. Finally, reconstituted samples were analyzed by injection into a UPLC-MS/MS system (Waters) to evaluate concentrations of EC0531 and metabolites against a prepared calibration curve.

[3] = Drug concentration in iUC tissue samples; settings: three dogs, approximately three hours after treatment, 0.28 mg/kg EC0531
Procedure: as §1, §2

[4] = dogs that had received and failed prior chemotherapy
[5] = non-responders, dogs with PD after the initial two treatments
[6] = dog, plasma, iv, 0.28 mg/kg, Avg of six dogs, EC0531 in plasma, single 0.28 mg/kg IV

SMILES: CCCC(=O)OCN(C(=O)[C@@H](NC(=O)[C@H]1CCCCN1C)[C@@H](C)CC)[C@H](C[C@@H](OC(C)=O)c1nc(C(=O)N[C@@H](Cc2ccc(O)cc2)C[C@H](C)C(=O)NNC(=O)OCCSSC[C@H](NC(=O)[C@H](CCC(=O)NC[C@H](O)[C@@H](O)[C@H](O)[C@H](O)CO)NC(=O)CC[C@H](NC(=O)[C@H](CCC(=O)NC[C@H](O)[C@@H](O)[C@H](O)[C@H](O)CO)NC(=O)CC[C@H](NC(=O)[C@H](CCC(=O)NC[C@H](O)[C@@H](O)[C@H](O)[C@H](O)CO)NC(=O)CC[C@H](NC(=O)c2ccc(NCc3cnc4nc(N)[nH]c(=O)c4n3)cc2)C(=O)O)C(=O)O)C(=O)O)C(=O)O)cs1)C(C)C [EC0531]
- PR, percent of dogs ([1]; 28 dogs): 11%
- clinical benefit rate ([1]; 28 dogs): 71%
- PFI range ([1]; all dogs (n = 28)): 24 to 649 days
- median PFI ([1]; all dogs (n = 28)): 103 days
- hazard ratio for PFI ([1]; dogs achieving PR vs dogs with PD): 0.003 (95% CI 0–0.066)
- HR for earlier PD [1, 4]: 4.6 (95% CI 1.2–16.7)
- PFI range [1, 4]: 34–162
- median PFI [1, 4]: 95 days
- PFI range ([1]; dogs with SD): 56 to 296 days
- median PFI ([1]; dogs with SD): 200 days
- hazard ratio for PFI ([1]; dogs with SD vs dogs with PD): 0.013 (95% CI 0.001–0.124)
- PFI range [1, 5]: 24–47
- median PFI [1, 5]: 34 days
- clinical benefit (PR + SD), number of dogs ([1]; of 28 dogs): 20 dogs
- partial remission (PR), number of dogs ([1]; of 28 dogs): three
- stable disease (SD), number of dogs ([1]; of 28 dogs): 17 dogs
- PFI or time of censoring ([1]; the three individual dogs achieving PR): 162 days and 251 days and 649 days
- tumor response ([1]; the two dogs receiving all of their doses below the MTD): SD and PD
- Tmax ([2]; Norwegian Elkhound, dog, individual dogs #1-6 (c0), EC0531 in plasma, single 0.28 mg/kg IV): 2 min
- AUC(0-inf) [2, 6]: 1900 ng·h/mL
- AUC(0-t) [2, 6]: 1890 ng·h/mL
- C0 [2, 6]: 3990 ng/mL
- Cmax [2, 6]: 3490 ng/mL
- clearance [2, 6]: 2.78 mL/min/kg
- Vd ([2]; dog, plasma, iv, 0.28 mg/kg, Avg of six dogs, EC0531 in plasma, single 0.28 mg/kg IV, read-out: Vz): 0.102 L/kg
- half-life ([2]; dog, plasma, iv, 0.28 mg/kg, Avg of six dogs, EC0531 in plasma, single 0.28 mg/kg IV, read-out: t1/2): 24.7 min
- half-life ([2]; dog, plasma, iv, 0.28 mg/kg, dogs, 0.28 mg/kg IV, biphasic pharmacokinetic behavior, read-out: elimination half-life): ~25 min
- half-life ([2]; dog, plasma, iv, 0.28 mg/kg, individual dogs #1-6 (c0), EC0531 in plasma, single 0.28 mg/kg IV, read-out: t1/2): 22 min
- Tmax ([2]; dog, Avg of six dogs, EC0531 in plasma, single 0.28 mg/kg IV): 2 min
- peak plasma drug concentration relative to concentrations required to kill FR-expressing tumor cells in vitro ([2]; dogs receiving 0.28 mg/kg, in vitro concentrations from ref 14): approximately 700 times
- level at 3 h ([3]; dog, iUC tumor tissue, iv, read-out: concentration of EC0531 in iUC tissues): 3.9 ng/mL
- concentration of EC0531 in iUC tissues [3]: below the level of detection
